Patent US20190060261A1, “ACTIVE COMBINATIONS OF PERILLIC ACID AND ACTIVITY ENHANCING SUBSTANCES” (B.R.A.I.N BIOTECHNOLOGY RESEARCH AND INFORMATION NETWORK AG, priority 2016, published 2019)
Converted amounts (≈) assume the structure as drawn. Read-outs that look alike come from different tables or passages of the source.

Legend:
[1] = tested on: Escherichia coli ATCC 8739; assay: Minimal inhibition concentration (MIC), microdilution method adapted from DIN EN ISO 20776-1:2006; format: cell-based; conditions: Escherichia coli
From the text: (§1) The antimicrobial activity of different substances was examined and compared to perillic acid in vitro using the microdilution method adapted from DIN EN ISO 20776-1:2006. Besides perillic acid and its sodium salt, other organic acids like levulinic acid, p-anisic acid, benzoic acid and sorbic acid as well as alkane-1,2-diols such as hexane-1,2-diol, octane-1,2-diol and decane-1,2-diol were studied. Additionally, the commonly used preservatives 2-phenoxyethanol, 2-phenylethanol and benzyl alcohol were investigated.
(§2) All experiments were done in 96-well plates in a final volume of 200 μL. Test solutions of the investigated compounds were prepared in 25 mM buffered water. The procedure was conducted as following: 4 μL of the particular stock solution were mixed with 196 μL culture medium containing a defined inoculum of the respective target strain. Sterile controls (not inoculated) and growth controls (buffer instead of compound added) were performed. All compound concentrations were tested in triplicate for several times. The following contamination germs were examined: Escherichia coli ATCC 8739, Pseudomonas aeruginosa ATCC 9027, Stapyhlococcus aureus ATCC®6538, Bacillus subtilis subsp. spizizenii ATCC®6633, Candida albicans ATCC®10231 and Aspergillus brasiliensis ATCC®16404. The strains were cultivated either in Mueller-Hinton II Bouillon (Escherichia coli, Pseudomonas aeruginosa, Staphylococcus aureus), in yeast peptone dextrose (Bacillus subtilis, Candida albicans) or in potato dextrose medium (Aspergillus brasiliensis). All culture media were buffered with 25 mM MES-buffer. For compound testing, the plates were incubated at 37° C. for Escherichia coli, Pseudomonas aeruginosa and Staphylococcus aureus, at 28° C. for Bacillus subtilis and Candida albicans, and at 25° C. for Aspergillus brasiliensis. Plates were evaluated after 24 h and 72 h, respectively. The minimal inhibitory concentration (MIC) is defined as the concentration where no microbial growth was observed after 24 h and 72 h incubation at the specified temperature.
(§3) MIC-values are given according to the following letter code.

[2] = tested on: Aspergillus brasiliensis ATCC®16404; assay: Minimal inhibition concentration (MIC), microdilution method; format: cell-based; conditions: for MIC: Aspergillus brasiliensis
From the text: as §1, §2, §3

[3] = tested on: Bacillus subtilis subsp. spizizenii ATCC®6633; assay: as above; format: cell-based; conditions: for MIC: Bacillus subtilis
From the text: as §1, §2, §3

[4] = tested on: Candida albicans ATCC®10231; assay: as above; format: cell-based; conditions: for MIC: Candida albicans
From the text: as §1, §2, §3

[5] = tested on: Pseudomonas aeruginosa ATCC 9027; assay: as above; format: cell-based; conditions: for MIC: Pseudomonas aeruginosa
From the text: as §1, §2, §3

[6] = tested on: Stapyhlococcus aureus ATCC®6538; assay: as above; format: cell-based, Staphylococcus aureus; conditions: for MIC: Staphylococcus aureus
From the text: as §1, §2, §3

[7] = tested on: Escherichia coli; assay: Combination of substances with perillic acid: reduction of the MIC of perillic acid; format: cell-based; conditions: test compound combined with perillic acid; experiments as in Example 1
Description: as §2
(§4) Activity of perillic acid was comparably low against Gram-negative bacteria. It was thus tested whether the respective MIC could be reduced by combination of perillic acid with selected substances.
(§5) Experiments were performed as described for Example 1 above. A reduction factor was determined, expressing the reduction of the MIC of perillic acid that was achievable by combination with the combination partner. For example, a reduction factor of 2 means that the MIC of perillic acid was reduced by a factor of 2 by combination of perillic acid with the respective activity enhancing substance.

[8] = tested on: Pseudomonas aeruginosa; assay: as above; format: cell-based; conditions: test compound combined with perillic acid; experiments as in Example 1
Description: as §2, §4, §5

[9] = ATCC8739, read-out: MIC [A to D] Escherichia coli
[10] = ATCC9027, read-out: MIC [A to D] Pseudomonas aeruginosa
[11] = ATCC8739, Mueller-Hinton II Bouillon, 25 mM MES-buffer, 37° C., no growth after 24 h and 72 h, read-out: MIC [A to D] Escherichia coli
[12] = ATCC16404, potato dextrose medium, 25 mM MES-buffer, 25° C., no growth after 24 h and 72 h, read-out: MIC [A to D] Aspergillus brasiliensis
[13] = ATCC6633, yeast peptone dextrose, 25 mM MES-buffer, 28° C., no growth after 24 h and 72 h, read-out: MIC [A to D] Bacillus subtilis
[14] = ATCC10231, yeast peptone dextrose, 25 mM MES-buffer, 28° C., no growth after 24 h and 72 h, read-out: MIC [A to D] Candida albicans
[15] = ATCC9027, Mueller-Hinton II Bouillon, 25 mM MES-buffer, 37° C., no growth after 24 h and 72 h, read-out: MIC [A to D] Pseudomonas aeruginosa
[16] = ATCC6538, Mueller-Hinton II Bouillon, 25 mM MES-buffer, 37° C., no growth after 24 h and 72 h, read-out: MIC [A to D] Staphylococcus aureus
[17] = potato dextrose medium, 25 mM MES-buffer, 25° C., no growth after 24 h and 72 h
[18] = yeast peptone dextrose, 25 mM MES-buffer, 28° C., no growth after 24 h and 72 h
[19] = Mueller-Hinton II Bouillon, 25 mM MES-buffer, 37° C., no growth after 24 h and 72 h

| Compound | MIC [1, 9] [µg/mL] | MIC ([2]; ATCC16404, read-out: MIC [A to D] Aspergillus brasiliensis) [µg/mL] | MIC ([3]; ATCC6633, read-out: MIC [A to D] Bacillus subtilis) [µg/mL] | MIC ([4]; ATCC10231, read-out: MIC [A to D] Candida albicans) [µg/mL] | MIC [5, 10] [µg/mL] | MIC ([6]; ATCC6538, read-out: MIC [A to D] Staphylococcus aureus) [µg/mL] | Reduction factor (reduction of the MIC of perillic acid by combination with the test compound) Escherichia coli [7] | Reduction factor (reduction of the MIC of perillic acid by combination with the test compound) Pseudomonas aeruginosa [8] | MIC [1, 11] [µg/mL] | MIC [2, 12] [µg/mL] | MIC [3, 13] [µg/mL] | MIC [4, 14] [µg/mL] | MIC [5, 15] [µg/mL] | MIC [6, 16] [µg/mL] | MIC [A to D] Aspergillus brasiliensis [2, 17] | MIC [A to D] Bacillus subtilis [3, 18] | MIC [A to D] Candida albicans [4, 18] | MIC [A to D] Staphylococcus aureus [6, 19] | MIC [A to D] Pseudomonas aeruginosa [5, 19] |
| --- | --- | --- | --- | --- | --- | --- | --- | --- | --- | --- | --- | --- | --- | --- | --- | --- | --- | --- | --- |
| OCCOc1ccccc1 [2-Phenoxyethanol, reference compound] | 5000 to 10000 (≈ 36.2 to 72.4 mM) | 5000 to 10000 (≈ 36.2 to 72.4 mM) | 5000 to 10000 (≈ 36.2 to 72.4 mM) | 5000 to 10000 (≈ 36.2 to 72.4 mM) | 5000 to 10000 (≈ 36.2 to 72.4 mM) | 5000 to 10000 (≈ 36.2 to 72.4 mM) | 30 | 20 |  |  |  |  |  |  |  |  |  |  |  |
| OCCc1ccccc1 [2-Phenylethanol, reference compound] |  |  |  |  |  |  | 40 | 8 | 5000 to 10000 (≈ 40.9 to 81.9 mM) | 5000 to 10000 (≈ 40.9 to 81.9 mM) | 5000 to 10000 (≈ 40.9 to 81.9 mM) | 5000 to 10000 (≈ 40.9 to 81.9 mM) | 5000 to 10000 (≈ 40.9 to 81.9 mM) | 5000 to 10000 (≈ 40.9 to 81.9 mM) |  |  |  |  |  |
| OCc1ccccc1 [Benzyl Alcohol, reference compound] |  |  |  |  |  |  | 20 | 5 | 5000 to 10000 (≈ 46.2 to 92.5 mM) | 5000 to 10000 (≈ 46.2 to 92.5 mM) | 5000 to 10000 (≈ 46.2 to 92.5 mM) | 5000 to 10000 (≈ 46.2 to 92.5 mM) | 5000 to 10000 (≈ 46.2 to 92.5 mM) | 5000 to 10000 (≈ 46.2 to 92.5 mM) |  |  |  |  |  |
| CCCCCCCCC(O)CO (stereo not drawn) [Decane-1,2-diol] |  |  |  |  |  |  |  |  | 1000 to 5000 (≈ 5.74 to 28.7 mM) |  |  |  | 1000 to 5000 (≈ 5.74 to 28.7 mM) |  | D (MIC<0.1% (w/v)) | D (MIC<0.1% (w/v)) | D (MIC<0.1% (w/v)) | D (MIC<0.1% (w/v)) |  |
| CC(=O)C1C(=O)C=C(C)OC1=O (stereo not drawn) [Dehydroacetic acid] | 1000 to 5000 (≈ 5.95 to 29.7 mM) |  |  |  | 1000 to 5000 (≈ 5.95 to 29.7 mM) |  |  |  |  |  |  |  |  |  | D (MIC<0.1% (w/v)) | D (MIC<0.1% (w/v)) | D (MIC<0.1% (w/v)) | D (MIC<0.1% (w/v)) |  |
| CCCCCCCCCCC(O)CO (stereo not drawn) [Dodecane-1,2-diol] |  |  |  |  |  |  |  |  | 5000 to 10000 (≈ 24.7 to 49.4 mM) |  |  |  |  |  | D (MIC<0.1% (w/v)) | D (MIC<0.1% (w/v)) | D (MIC<0.1% (w/v)) | D (MIC<0.1% (w/v)) | D (MIC<0.1% (w/v)) |
